Assay results as given in BindingDB's records for patent US12503453 (Dana-Farber Cancer Institute, 2025).

Target: Ubiquitin carboxyl-terminal hydrolase 7 (Homo sapiens, UniProt Q93009)
Experiment: Ub-AMC Enzymatic and Kinetic Assays
Description: Full length USP7 was tested for its activity in Ubiquitin-AMC assay in presence or absence of inhibitors. USP7 (5 nM) was pre-incubated for 6 hours at room temperature with different concentrations of inhibitors or DMSO as a control in 50 mM HEPES pH 7.5, 0.5 mM EDTA, 11 μM ovalbumin, and 5 mM DTT. Ubiquitin-AMC (Boston Biochem) was then added to a final concentration of 500 nM. The initial rate of the reaction was measured by collecting fluorescence data at one minute intervals over 30-minute period using a Clariostar fluorescence plate reader at excitation and emission wavelength of 345 and 445 nm respectively. The calculated initial rate values were plotted against inhibitor concentrations to determine IC50s. All the experimental data were plotted using Prism GraphPad. All assays for each compound were performed at least twice for each compound.

Sequence of Ubiquitin carboxyl-terminal hydrolase 7 (Q93009 whole entry): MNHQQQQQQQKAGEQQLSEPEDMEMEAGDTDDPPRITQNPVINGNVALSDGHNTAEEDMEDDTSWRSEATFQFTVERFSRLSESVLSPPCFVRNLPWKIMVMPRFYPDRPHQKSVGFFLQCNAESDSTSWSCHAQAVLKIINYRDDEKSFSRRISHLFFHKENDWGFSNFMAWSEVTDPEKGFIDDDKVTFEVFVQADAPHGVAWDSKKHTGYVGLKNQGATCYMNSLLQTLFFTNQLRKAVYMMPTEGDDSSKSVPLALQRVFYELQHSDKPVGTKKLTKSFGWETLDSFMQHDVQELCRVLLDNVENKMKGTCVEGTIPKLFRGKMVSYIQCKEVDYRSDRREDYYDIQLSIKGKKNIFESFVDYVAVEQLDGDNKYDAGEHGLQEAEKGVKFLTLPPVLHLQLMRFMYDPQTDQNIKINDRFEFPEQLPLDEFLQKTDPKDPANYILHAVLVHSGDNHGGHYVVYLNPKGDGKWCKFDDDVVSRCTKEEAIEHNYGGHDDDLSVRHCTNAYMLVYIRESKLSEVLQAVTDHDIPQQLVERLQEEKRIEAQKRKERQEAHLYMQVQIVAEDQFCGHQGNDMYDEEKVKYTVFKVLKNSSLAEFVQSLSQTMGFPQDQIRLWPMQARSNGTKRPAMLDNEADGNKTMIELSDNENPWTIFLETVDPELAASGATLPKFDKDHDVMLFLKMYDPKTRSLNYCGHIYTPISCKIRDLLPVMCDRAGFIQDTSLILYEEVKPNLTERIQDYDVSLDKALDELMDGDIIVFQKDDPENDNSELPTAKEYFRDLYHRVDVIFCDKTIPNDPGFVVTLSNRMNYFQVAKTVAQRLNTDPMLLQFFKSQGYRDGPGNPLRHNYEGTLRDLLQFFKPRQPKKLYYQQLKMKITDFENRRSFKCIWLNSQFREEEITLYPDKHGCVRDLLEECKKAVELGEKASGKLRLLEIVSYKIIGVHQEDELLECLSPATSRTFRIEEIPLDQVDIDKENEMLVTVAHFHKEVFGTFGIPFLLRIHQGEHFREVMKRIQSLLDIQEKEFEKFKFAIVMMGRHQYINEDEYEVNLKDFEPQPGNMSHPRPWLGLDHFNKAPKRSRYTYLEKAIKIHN

In the case of `CN1CCN(CCC(=O)Nc2ccc3c(=O)n(CC4(O)CCN(C(=O)C(CCCNC(=O)C5CCN(C#N)C5)Cc5ccccc5)CC4)cnc3c2)CC1` (stereo unspecified) [US12503453, Compound Table1.19], the IC50 is reported as > 1 µM.
